Test results reported in ChEMBL document CHEMBL3856233, “Identification of (R)-(2-Chloro-3-(trifluoromethyl)phenyl)(1-(5-fluoropyridin-2-yl)-4-methyl-6,7-dihydro-1H-imidazo[4,5-c]pyridin-5(4H)-yl)methanone (JNJ 54166060), a Small Molecule Antagonist of the P2X7 receptor” (J Med Chem, 2016).
≈ marks a conversion by molar mass, not a printed value.

What was measured:
[1] = Oral bioavailability in Sprague-Dawley rat at 5 mg/kg after 0.033 to 24 hrs by LC/MS/MS analysis; type: ADME, organism-based; conditions: in vivo
[2] = biological target: T1, CYP3A4 (Homo sapiens, UniProt P08684); test: Inhibition of CYP3A4 in human liver microsomes using midazolam as substrate assessed as reduction in 4-OH-midazolam formation at 0.313 uM by LC/MS/MS analysis; type: ADME; conditions: probe midazolam
[3] = Tmax in rat at 1000 mg/kg, po; type: ADME, organism-based; conditions: in vivo
[4] = Protein binding in mouse plasma at 1 uM after 6 hrs by LC/MS/MS analysis; type: ADME, cell-free; conditions: read-out: PPB (converted)
[5] = Clearance in Beagle dog at 1 mg/kg, iv after 0.033 to 24 hrs by LC/MS/MS analysis; type: ADME, organism-based, Canis lupus familiaris; conditions: in vivo
[6] = Solubility of the compound in phosphate buffer at pH 7 at room temperature after 3 days
[7] = system: Rattus norvegicus; test: Toxicity in rat assessed as CNS side effects up to 1000 mg/kg, po administered on day 1 followed by necropsy on day 2; type: organism-based; conditions: in vivo
[8] = biological target: T2, P2X purinoceptor 7 (Mus musculus, UniProt Q9Z1M0); test: Antagonist activity at recombinant mouse P2X7 receptor expressed in human 1321N1 cells assessed as inhibition of Bz-ATP-induced Ca2+ flux preincubated for 30 mins followed by agonist addition measured after 180 sec by calcium-4 dye based FLIPR assay; type: cell-based
T2 sequence (Q9Z1M0 whole entry): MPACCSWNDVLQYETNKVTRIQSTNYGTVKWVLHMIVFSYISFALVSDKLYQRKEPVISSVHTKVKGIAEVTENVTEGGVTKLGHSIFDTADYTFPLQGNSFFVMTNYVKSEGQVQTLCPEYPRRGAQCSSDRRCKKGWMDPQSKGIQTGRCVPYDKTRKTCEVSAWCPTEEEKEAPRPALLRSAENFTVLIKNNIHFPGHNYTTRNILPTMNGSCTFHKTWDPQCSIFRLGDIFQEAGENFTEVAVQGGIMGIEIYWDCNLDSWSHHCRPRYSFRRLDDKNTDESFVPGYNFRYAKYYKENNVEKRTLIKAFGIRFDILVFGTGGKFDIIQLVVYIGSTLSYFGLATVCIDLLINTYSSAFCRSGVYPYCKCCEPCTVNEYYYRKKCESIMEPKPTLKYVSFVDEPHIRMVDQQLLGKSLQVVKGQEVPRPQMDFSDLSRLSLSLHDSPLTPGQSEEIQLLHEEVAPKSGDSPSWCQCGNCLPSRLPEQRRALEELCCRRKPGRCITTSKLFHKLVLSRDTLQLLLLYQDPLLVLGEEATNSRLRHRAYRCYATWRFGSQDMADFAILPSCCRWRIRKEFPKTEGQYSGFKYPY

[9] = Permeability from basolateral to apical side in human Caco2 cells at 10 uM after […] by LC/MS/MS analysis; type: ADME, cell-based; conditions: Caco-2, read-out: permeability
[10] = biological target: T1, CYP3A4; test: Inhibition of CYP3A4 in human liver microsomes using midazolam as substrate assessed as reduction in 1-OH-midazolam formation at 0.313 uM by LC/MS/MS analysis; type: ADME; conditions: probe midazolam
[11] = system: Rattus norvegicus; test: Ex vivo receptor occupancy at P2X7 receptor in po dosed rat brain hippocampal section assessed as displacement of [3H]-(S)-7-(2-chloro-3-(trifluoromethyl)benzyl)-6-methyl-3-(pyrazin-2-yl)-6,7-dihydro-[1,2,4]triazolo[4,3-a]pyrazin-8(5H)-one after 30 mins; type: functional
[12] = Protein binding in rat plasma at 1 uM after 6 hrs by LC/MS/MS based equilibrium dialysis method; type: ADME, cell-free; conditions: read-out: PPB (converted)
[13] = biological target: T1, CYP3A4; test: Inhibition of CYP3A4 in human liver microsomes using midazolam as substrate assessed as reduction in 1-OH-midazolam formation at 0.625 uM by LC/MS/MS analysis; type: ADME; conditions: probe midazolam
[14] = biological target: T1, CYP3A4; test: Inhibition of CYP3A4 in human liver microsomes using midazolam as substrate assessed as reduction in 1-OH-midazolam formation at 1.25 uM by LC/MS/MS analysis; type: ADME; conditions: probe midazolam
[15] = Drug metabolism in human liver microsomes assessed as oxidation of fluoropyridine substituent at 10 uM after 60 mins by LC/MS/MS analysis; type: ADME; conditions: 1 h

T1 sequence (P08684 whole entry): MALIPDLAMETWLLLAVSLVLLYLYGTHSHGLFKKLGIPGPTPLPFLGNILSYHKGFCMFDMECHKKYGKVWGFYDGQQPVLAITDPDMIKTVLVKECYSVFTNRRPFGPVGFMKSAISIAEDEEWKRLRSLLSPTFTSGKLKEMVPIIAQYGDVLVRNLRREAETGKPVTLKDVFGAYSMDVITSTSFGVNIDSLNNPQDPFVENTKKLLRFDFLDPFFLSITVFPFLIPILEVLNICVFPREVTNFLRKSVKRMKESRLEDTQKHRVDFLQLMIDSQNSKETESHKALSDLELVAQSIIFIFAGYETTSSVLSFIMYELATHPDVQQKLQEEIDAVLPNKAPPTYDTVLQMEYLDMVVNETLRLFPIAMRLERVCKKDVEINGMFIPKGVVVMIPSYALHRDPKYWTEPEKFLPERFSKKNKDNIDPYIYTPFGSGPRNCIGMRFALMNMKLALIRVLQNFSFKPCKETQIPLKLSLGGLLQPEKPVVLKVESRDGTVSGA

C[C@@H]1c2ncn(-c3ccc(F)cn3)c2CCN1C(=O)c1cccc(C(F)(F)F)c1Cl showed a bioavailability [1] of 55%, an inhibition at 0.313 µM [2] of 0.1% and a Tmax [3] of 24 h. It also gave a fraction unbound at 6 h, 1 µM [4] of 0.045, a clearance [5] of 5.5 mL/min/kg and a solubility at 72 h [6] of 29 µM (≈ 12.7 µg/mL). For the same molecule, the Activity [7] was “Non-Toxic”, the IC50 [8] was 72 nM and the Papp B→A at 10 µM [9] was 35 ×10⁻⁶ cm/s. For the same molecule, the inhibition at 0.313 µM [10] was 20%, the ED50 [11] was 2.3 mg/kg and the inhibition [11] was “Dose-dependent effect”. For the same molecule, the fraction unbound at 6 h, 1 µM [12] was 0.051, the inhibition at 0.625 µM [13] was 29% and the inhibition at 1.25 µM [14] was 41%. The Drug metabolism [15] was “Metabolite_Notdetected”.
